Measured values as given in patent US20260000645A1, “USE OF EBSELEN OR ONE OF THE DERIVATIVES THEREOF TO TREAT MITOCHONDRIAL PATHOLOGIES OR DYSFUNCTIONS” (ASSOCIATION FRANCAISE CONTRE LES MYOPATHIES, priority 2022, published 2026).

Columns and labels:
[1] = tested on: Cox2 protein in mutant strain taz1; assay: Accumulation of Cox2 protein (SDS-PAGE/immunoblot) in taz1; format: cell-based, Saccharomyces cerevisiae; settings: 1 μM of EBS
Procedure: (§1) Total protein extracts from the mutant yeast strain were analyzed by SDS-PAGE ([…] per well) using antibodies against the indicated proteins. The gels shown are representative of at least 3 experiments. Protein levels were quantified using the ImageJ software. The levels of Cox2 were normalized with respect to Ade13p and expressed with respect to the wild type (WT) strain.

[2] = tested on: myoblasts of a TAZ patient; assay: Growth of myoblasts of TAZ patients (SRB, low glucose, 120 hours); format: cell-based, human
Procedure: EBS was also tested for the ability thereof to restore cell growth of a line of myoblasts from patients, carriers of mutations in the TAZ gene. The rate of proliferation was measured in a medium with a weak concentration of glucose in 384 well micro-titration plates (1200 cells/wells at T0) using the Sulforhodamine B (SRB) staining protocol at 48, 72, 96 or 120 hours after placing the cells.

mutant yeast strain sym1 = assay: Cellular respiration (OROBOROS oxygraph) in sym1; format: cell-based, Saccharomyces cerevisiae; settings: EBS 1 μM, compared to non-treated cells
Procedure: Respiratory intensity corresponds to the amount of oxygen consumed with respect to time and the number of cells. It reflects the mitochondrial oxidative metabolism of the cells. The consumption of oxygen was measured using the OROBOROS oxygraph system. The cells were cultivated over 7-8 generations at 28° C. for 24 to 48 h in an Ethanol YPA medium supplemented by DMSO or EBS (1 μM). 10^7 cells were introduced into the oxygraph. The consumption of O2 was recorded with or without CCCP (maximum rate of oxygen consumption). The rate of O2 consumption was calculated on the basis of the linear part of the O2 consumption.
(§2) The experiments described in example 2 were implemented on the mutant yeast strain sym1.
(§3) The data are the averages ±SEM of at least three independent experiments. The significance of the variations between samples and the controls were estimated using the multi-factorial Anova: Tukey test.

HeLa KO FMC1 = assay: Proliferation of HeLa KO FMC1 cell line (SRB); format: cell-based, human; settings: glucose 1 g/L or galactose; 96 hours; dose-dependent, wide range of concentrations (pM to μM)
Procedure: The cell line HeLa KO FMC1, mimicking human illnesses related to a deficiency of ATP synthase (NARP, MILS syndromes), were generated by the CRISPR-Cas9 method. The cell line HeLa KO FMC1 was cultivated in a DMEM medium containing 4.5 g/L of glucose and 110 mg/l of pyruvate and 50 mg/l of uridine.
The rate of proliferation of this HeLa cell line in which the gene FMC1 was deleted was measured in a medium containing either a low concentration of glucose (1 g/L), or of galactose in micro-plates of 384 wells (4500 cells/cm^2 at T0) using the Sulforhodamine B (SRB) staining protocol 96 hours after seeding and treatment of the cells. The bars represent the average of 8 replicates coming from 3 independent experiments.

[3] = tested on: fibroblasts of TAZ patients; assay: Mitochondrial ATP level in fibroblasts of TAZ patients (CellTiter-Glo); format: cell-based, human; settings: EBS 12.15 nM for 96 hours
Procedure: The levels of mitochondrial ATP in the fibroblasts of TAZ patients were evaluated using a Promega CellTiter-Glo kit. The cells in 96 well plates (5000/well) were treated or not treated with 12.15 nM of EBS for 96 hours then were incubated in the presence of Antimycin A (100 μM), of Rotenone (0.5 μM) or oligomycin A (3 μM).

[4] = tested on: fibroblasts of TAZ patients; assay: Respiratory growth/proliferation of fibroblasts of TAZ patients (SRB, low glucose); format: cell-based, human
Procedure: EBS was tested for the effect thereof on the respiratory growth of fibroblasts of TAZ patients, as opposed to fibroblasts from eight different patients, carriers of mutations in the TAZ gene (suffering from Barth's syndrome).
The rate of proliferation was measured in a medium with a weak concentration of glucose (1 g/L; to force cells to use the OXPHOS system rather than glycolyse) in 384 well micro-titration plates (1200 cells/wells at T0) using the Sulforhodamine B (SRB) staining protocol at 24, 48, 72 or 96 hours after placing the cells with or without 12.15 nM of EBS.
The data are the average of 8 patients or 3 controls in triplicate, in 4 independent experiments.
The rate of proliferation was then measured under the same experimental conditions but with variable concentrations of ethaselen: The cells were analyzed 96 hours after treatment with increasing doses of ethaselen (from 150 pM to 26.1 μM). The bars represent the average of 4 replicates coming from 2 patients in 3 independent experiments.

mutant Pa nuo-51^A357V = assay: Growth halo of heat sensitive complex I mutant at 33° C.; format: cell-based, Podospora anserina; settings: 20 nmoles of EBS, 4-5 days
Procedure: The strain used in the following examples contains a specific mutation modeling a human mutation in the sub-unit NDUFV1 of complex I leading to a mitochondrial illness. This strain has a growth defect at a non-permissive temperature greater than 31.5° C.
nuo-51^A357V: The mutation A357V was introduced into the gene nuo-51 of the wild type strain S along with a resistance cassette of nourseothricin (NatR). In order to mimic the human illness NDUFV1A341V, the genes NDI-1 and AOX were deactivated (El-Khoury et al., (2008) Curr Genet. 53:249-58)
The heat sensitive mutant Pa nuo-51^A357V was homogeneously spread on sterile glass beads on a square Petri dish containing a solid minimal medium (M2). Small sterile filters were then placed on the agar-agar surface and 20 nmoles of EBS were added. DMSO (the vehicle of the compound) was used as a negative control. The plate was then incubated at the non-permissive temperature of 33° C. for 4-5 days then photographed.

[5] = tested on: Cox2 protein in mutant yeast strain sym1; assay: Accumulation of Cox2 protein in sym1; format: cell-based, Saccharomyces cerevisiae; settings: EBS 1 μM, compared to non-treated cells
Procedure: as §1, §2, §3

[6] = 96 hours, vs negative control DMSO

## O=c1c2ccccc2[se]n1-c1ccccc1 [ebselen, 2-phenyl-1,2-benzisoselenazol-3(2H)-one]
[1]
  accumulation of the protein Cox2: increases
[2]
  toxicity concentration: > 78.3 µM
[2]; vs DMSO
  concentration range with beneficial effects on growth, lower limit: ≥ 450 nM
  concentration range with beneficial effects on growth, upper limit: ≤ 8.7 µM
Mutant yeast strain sym1
  cell respiration: increased
HeLa KO FMC1
  proliferation of model cells of an ATP synthase deficiency: improves
[3]
  mitochondrial ATP production: improves
[4]; 96 hours, fibroblasts of TAZ patients
  toxicity concentration: > 234.9 µM
[4]; [6]
  concentration range improving respiratory growth/proliferation, lower limit: ≥ 1.35 nM
  concentration range improving respiratory growth/proliferation, upper limit: ≤ 8.7 µM
[4]; EBS 12.15 nM, glucose 1 g/L, 24, 48, 72, 96 hours
  respiratory growth of fibroblasts of TAZ patients: improves
[4]; EBS 12.15 nM, more pronounced at 48, 72 and 96 hours
  time after which EBS is effective: 24 h
Mutant Pa nuo-51^A357V
  growth of the mutant (growth halo): positive effect
[5]
  level of Cox2: increased
